Measurements published in patent EP0165775A1, “Antifungal azole compounds” (IMPERIAL CHEMICAL INDUSTRIES PLC, priority 1984, dated 1985).

Tested on: Candida albicans and Trichophyton mentagrophytes var. quinkeanum
Test: animal or person
Format: in vivo
Settings: 168 h; female mice, oral dosing twice on day 0 and once daily on days 1-4; skin lesions scored and vaginal samples cultured on day 7; read-out: minimum effective dose (MED)
Method: The following Monday (day 0) they are clipped on the back and then dosed orally with test compounds. They are then inoculated with Candida albicans in the vagina and Trichophyton mentagrophytes var. quinkeanum on the back, and then given a second dose of the same compound. Dosing is repeated once daily on days 1-4. On day 7 skin lesions are scored visually and vaginal samples taken for culture on agar. Groups of 5 mice are used and compounds are dosed initially at a level of 250mg./kg. The dose is then reduced sequentially until a minimum effective dose (MED) is found.

SMILES: OC(Cn1cncn1)(Cn1cnc(Br)n1)c1ccc(F)cc1F (stereo not drawn) [Example 1, 1-(3-bromo-1,2,4-triazol-1-yl)-2-(2,4-difluorophenyl)-3-(1,2,4-triazol-l-yl)propan-2-ol]
- minimal effective dose: 2.5 mg/kg
